Laboratory results reported in ChEMBL document CHEMBL1165848, “Discovery of new cholesteryl ester transfer protein inhibitors via ligand-based pharmacophore modeling and QSAR analysis followed by synthetic exploration” (Eur J Med Chem, 2010).

Biological target: T1, Cholesteryl ester transfer protein (Oryctolagus cuniculus) (UniProt P22687)
T1 sequence (whole entry): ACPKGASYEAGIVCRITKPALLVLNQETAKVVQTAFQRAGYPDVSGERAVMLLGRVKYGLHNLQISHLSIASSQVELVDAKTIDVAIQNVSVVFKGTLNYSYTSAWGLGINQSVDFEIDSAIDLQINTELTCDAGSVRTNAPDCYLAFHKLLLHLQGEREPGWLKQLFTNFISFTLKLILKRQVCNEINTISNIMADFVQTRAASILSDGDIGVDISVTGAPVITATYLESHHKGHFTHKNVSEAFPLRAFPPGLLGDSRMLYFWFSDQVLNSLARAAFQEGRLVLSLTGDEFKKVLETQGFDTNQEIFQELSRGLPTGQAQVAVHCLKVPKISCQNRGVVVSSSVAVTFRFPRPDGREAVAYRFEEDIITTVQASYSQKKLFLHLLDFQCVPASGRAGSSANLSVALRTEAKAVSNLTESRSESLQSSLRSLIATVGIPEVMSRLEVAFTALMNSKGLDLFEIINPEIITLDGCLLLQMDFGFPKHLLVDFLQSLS
Test: Inhibition of CETP in rabbit serum at 10 uM after 1 hr by fluorescent cholesteryl esters transfer assay
Settings: not given

| Structure (SMILES) | inhibition |
| --- | --- |
| O=C(NCCCOc1ccc(Cl)c(Cl)c1)NCCc1ccc(Cl)c(Cl)c1 | 0% |
| CN(CN(C)/N=C\c1ccc(Cl)cc1)/N=C\c1ccc(Cl)cc1 | 0% |
| COc1ccc(OCCCn2cc(-c3ccc(Cl)c(Cl)c3)c(=N)[nH]c2=O)cc1 | 0% |
| CC(C)C[C@H]1C(=O)N2CCC[C@H]2[C@]2(O)O[C@](NC(=O)[C@@H]3C=C4c5cccc6[nH]c(Br)c(c56)C[C@H]4N(C)C3)(C(C)C)C(=O)N12 | 12.3% |
| CC(C)(C)c1ccc(C(O)CCCN2CCC(C(O)(c3ccccc3)c3ccccc3)CC2)cc1 (centres undefined) | 0% |
| OCc1cc(C(O)CNCCCCCCOCCCCc2ccccc2)ccc1O (centres undefined) | 27.4% |
| O=c1oc2ccccc2c(O)c1C(CC(O)c1ccc(-c2ccc(Br)cc2)cc1)c1ccccc1 (centres undefined) | 0% |

Biological target: T2, Cholesteryl ester transfer protein (Oryctolagus cuniculus, UniProt P22687)
T2 sequence (P22687 whole entry): T1 sequence (whole entry)
Test: Inhibition of CETP in rabbit serum after 1 hr by fluorescent cholesteryl esters transfer assay
Settings: not given

| Structure (SMILES) | IC50 |
| --- | --- |
| CC(C)Oc1cccc(N(Cc2cccc(OC(F)(F)C(F)F)c2)CC(O)C(F)(F)F)c1 (centres undefined) | 0.3 µM |

Same assay, conditions: read-out: IC50

| Structure (SMILES) | IC50 |
| --- | --- |
| OC(CN(Cc1cccc(OC(F)(F)C(F)F)c1)c1cccc(Oc2cc(F)cc(F)c2)c1)C(F)(F)F (centres undefined) | 0.2 µM |
| OC(Cc1ccccc1)CN(Cc1cccc(OC(F)(F)F)c1)c1ccccc1Oc1ccccc1 (centres undefined) | > 50 µM |
| OC(CN(Cc1cccc(C(F)(F)F)c1)c1cccc(F)c1)C(F)(F)F (centres undefined) | 40 µM |
| COc1cccc(Oc2cccc(N(Cc3cccc(OCC(O)C(F)(F)F)c3)CC(O)C(F)(F)F)c2)c1 (centres undefined) | 1.3 µM |
| CN(C)c1cccc(Oc2cccc(N(Cc3cccc(OC(F)(F)C(F)F)c3)CC(O)C(F)(F)F)c2)c1 (centres undefined) | 0.2 µM |
| Cc1ccc(CN(CC(O)C(F)(F)F)c2cccc(F)c2)cc1 (centres undefined) | 65 µM |
| OC(CN(Cc1cccc(OC(F)(F)C(F)F)c1)c1cccc(OC2CCCCC2)c1)C(F)(F)F (centres undefined) | 2.6 µM |
| Cc1ccc(Oc2cccc(N(Cc3cccc(OC(F)(F)C(F)F)c3)CC(O)C(F)(F)F)c2)cc1 (centres undefined) | 0.1 µM |
| OC(CN(Cc1cccc(C(F)(F)F)c1)c1cccc(C(F)(F)F)c1)C(F)(F)F (centres undefined) | 10 µM |
| Cc1ccccc1N(Cc1cccc(C(F)(F)F)c1)CC(O)C(F)(F)F (centres undefined) | > 100 µM |
| C=CC(O)CN(Cc1cccc(OC(F)(F)F)c1)c1ccccc1Oc1ccccc1 (centres undefined) | > 50 µM |
| Cc1ccc(N(Cc2cccc(C(F)(F)F)c2)CC(O)C(F)(F)F)cc1 (centres undefined) | > 100 µM |
| OC(CN(Cc1cccc(-c2ncccc2C(F)(F)F)c1)c1cccc(Oc2ccccc2)c1)C(F)(F)F (centres undefined) | 4.08 µM |
| OC(CN(Cc1cccc(OC(F)(F)C(F)F)c1)c1cccc(Oc2ccc(-c3ccccc3)cc2)c1)C(F)(F)F (centres undefined) | 2.5 µM |
| Cc1cccc(Oc2cccc(N(Cc3cccc(OC(F)(F)C(F)F)c3)CC(O)C(F)(F)F)c2)c1 (centres undefined) | 0.09 µM |
| COc1cccc(CN(CC(O)C(F)(F)F)c2cccc(Oc3ccccc3)c2)c1 (centres undefined) | 15 µM |
| CC(C)(C)c1cccc(Oc2cccc(N(Cc3cccc(OC(F)(F)C(F)F)c3)CC(O)C(F)(F)F)c2)c1 (centres undefined) | 0.08 µM |
| OC(CN(Cc1ccc(-c2ccccc2)cc1)c1cccc(F)c1)C(F)(F)F (centres undefined) | 20 µM |
| CC(C)Cc1cccc(CN(CC(O)C(F)(F)F)c2cccc(Oc3ccccc3)c2)c1 (centres undefined) | 0.54 µM |
| OC(CN(Cc1ccccc1)c1cccc(F)c1)C(F)(F)F (centres undefined) | > 100 µM |
| OC(CN(Cc1ccc(OC(F)(F)F)cc1)c1cccc(Oc2ccccc2)c1)C(F)(F)F (centres undefined) | 4 µM |
| OC(CN(Cc1cccc(-c2cccnc2)c1)c1cccc(Oc2ccccc2)c1)C(F)(F)F (centres undefined) | 14.3 µM |
| CCCC(O)CN(Cc1cccc(OC(F)(F)F)c1)c1ccccc1Oc1ccccc1 (centres undefined) | 3.6 µM |
| OC(CN(Cc1ccccc1C(F)(F)F)c1cccc(F)c1)C(F)(F)F (centres undefined) | > 100 µM |
| OC(CN(Cc1cccc(OC(F)(F)C(F)F)c1)c1cccc(OCc2ccccc2)c1)C(F)(F)F (centres undefined) | 0.2 µM |
| OC(CN(Cc1ccc(F)c(-c2ccco2)c1)c1cccc(Oc2ccccc2)c1)C(F)(F)F (centres undefined) | 0.72 µM |

| Structure (SMILES) | IC50 |
| --- | --- |
| OC(CN(Cc1cccc(OC(F)(F)F)c1)c1ccc(Oc2ccccc2)cc1)C(F)(F)F (centres undefined) | 25 µM |
| OC(CN(Cc1cccc(OC(F)(F)C(F)F)c1)c1cccc(F)c1)C(F)(F)F (centres undefined) | 4.5 µM |
| Cc1cc(Oc2cccc(N(Cc3cccc(OC(F)(F)C(F)F)c3)CC(O)C(F)(F)F)c2)ccc1Cl (centres undefined) | 0.2 µM |
| Cc1ccc(Oc2cccc(N(Cc3cccc(OC(F)(F)C(F)F)c3)CC(O)C(F)(F)F)c2)cc1C (centres undefined) | 0.08 µM |
| CCc1cc(Oc2cccc(N(Cc3cccc(OC(F)(F)F)c3)C[C@@H](O)C(F)(F)F)c2)ccc1Cl | 0.035 µM |
| CCc1cc(Oc2cccc(N(Cc3cccc(C(F)(F)C(F)(F)F)c3)C[C@@H](O)C(F)(F)F)c2)ccc1Cl | 0.045 µM |
| OC(CN(Cc1cccc(-c2cccs2)c1)c1cccc(Oc2ccccc2)c1)C(F)(F)F (centres undefined) | 1.12 µM |
| OC(CN(Cc1cccc(Oc2cccc(C(F)(F)F)c2)c1)c1cccc(F)c1)C(F)(F)F (centres undefined) | 0.0012 µM |
| Cc1ccccc1CN(CC(O)C(F)(F)F)c1cccc(F)c1 (centres undefined) | > 100 µM |
| CCc1cc(Oc2cccc(N(Cc3cc(C(F)(F)F)ccc3F)C[C@@H](O)C(F)(F)F)c2)ccc1Cl | 0.049 µM |
| OC(CN(Cc1cccc(OC(F)(F)C(F)F)c1)c1cccc(Oc2cccc(Cl)c2Cl)c1)C(F)(F)F (centres undefined) | 0.03 µM |
| CCc1cc(Oc2cccc(N(Cc3ccc(C(F)(F)F)cc3F)C[C@@H](O)C(F)(F)F)c2)ccc1Cl | 0.04 µM |
| OC(CN(Cc1cccc(C(F)(F)F)c1)c1cccc(Cl)c1)C(F)(F)F (centres undefined) | 12 µM |
| OC(CN(Cc1cccc(OC(F)(F)C(F)F)c1)c1cccc(Oc2ccccc2Cl)c1)C(F)(F)F (centres undefined) | 0.3 µM |
| OC(CN(Cc1cccc(OC(F)(F)C(F)F)c1)c1cccc(Oc2ccc(Cc3ccccc3)cc2)c1)C(F)(F)F (centres undefined) | 2.4 µM |
| OC(CN(Cc1cccc(OC(F)(F)F)c1)Cc1cccc(OC(F)(F)F)c1)C(F)(F)F (centres undefined) | 23 µM |
| OC(CN(Cc1cccc(OC(F)(F)F)c1)c1ccccc1Oc1ccccc1)c1ccccc1 (centres undefined) | > 50 µM |
| OC(CN(Cc1cccc(SC(F)(F)F)c1)c1cccc(Oc2ccccc2)c1)C(F)(F)F (centres undefined) | 0.39 µM |
| Cc1ccc(Oc2cccc(N(Cc3cccc(OC(F)(F)C(F)F)c3)C[C@@H](O)C(F)(F)F)c2)cc1 | 0.0081 µM |
| OC(CN(Cc1cccc(OC(F)(F)C(F)F)c1)c1cccc(Oc2cccc(F)c2)c1)C(F)(F)F (centres undefined) | 0.3 µM |
| OC(CN(Cc1cccc(-c2ccncc2)c1)c1cccc(Oc2ccccc2)c1)C(F)(F)F (centres undefined) | 6.24 µM |
| Cc1cccc(N(Cc2cccc(C(F)(F)F)c2)CC(O)C(F)(F)F)c1 (centres undefined) | 10 µM |
| Cc1cc(Oc2cccc(N(Cc3cccc(OC(F)(F)C(F)F)c3)CC(O)C(F)(F)F)c2)ccc1F (centres undefined) | 0.08 µM |
| OC(CN(Cc1cccc(OC(F)(F)C(F)F)c1)c1cccc(OCc2cccc(C(F)(F)F)c2)c1)C(F)(F)F (centres undefined) | 0.09 µM |
| CC(C)(C)Oc1cccc(CN(CC(O)C(F)(F)F)c2cccc(Oc3ccccc3)c2)c1 (centres undefined) | 0.66 µM |
| OC(CN(Cc1cccc(OC(F)(F)C(F)F)c1)c1cccc(Oc2ccc(Cl)cc2)c1)C(F)(F)F (centres undefined) | 0.3 µM |

| Structure (SMILES) | IC50 |
| --- | --- |
| OC(CN(Cc1cccc(OC(F)(F)C(F)F)c1)c1cccc(Oc2ccc(OC(F)(F)F)cc2)c1)C(F)(F)F (centres undefined) | 0.4 µM |
| OC(CN(Cc1ccc2c(c1)OC(F)(F)C(F)(F)O2)c1cccc(Oc2ccccc2)c1)C(F)(F)F (centres undefined) | 12 µM |
| Cc1cccnc1-c1cccc(CN(CC(O)C(F)(F)F)c2cccc(Oc3ccccc3)c2)c1 (centres undefined) | 15 µM |
| Cc1cccc(CN(CC(O)C(F)(F)F)c2cccc(F)c2)c1 (centres undefined) | > 100 µM |
| OC(CN(Cc1cccc(C(F)(F)F)c1)c1ccccc1)C(F)(F)F (centres undefined) | 15 µM |
| CC(C)c1ccc(Oc2cccc(N(Cc3cccc(OC(F)(F)C(F)F)c3)CC(O)C(F)(F)F)c2)cc1 (centres undefined) | 0.4 µM |
| COC(=O)c1cccc(CN(CC(O)C(F)(F)F)c2cccc(Oc3ccccc3)c2)c1 (centres undefined) | 16 µM |
| OC(CN(Cc1cccc(-c2ccccc2)c1)c1cccc(Oc2ccccc2)c1)C(F)(F)F (centres undefined) | 4.42 µM |
| OC(CN(Cc1cccc(OC(F)(F)C(F)F)c1)c1cccc(OC2CCCC2)c1)C(F)(F)F (centres undefined) | 0.4 µM |
| Cc1ccc(CN(CC(O)C(F)(F)F)c2cccc(Oc3ccccc3)c2)cc1-c1ccco1 (centres undefined) | 3.96 µM |
| CC(C)(O)c1cccc(CN(CC(O)C(F)(F)F)c2cccc(Oc3ccccc3)c2)c1 (centres undefined) | 7.8 µM |
| O=[N+]([O-])c1ccccc1Oc1cccc(N(Cc2cccc(OC(F)(F)C(F)F)c2)CC(O)C(F)(F)F)c1 (centres undefined) | 0.4 µM |
| COc1cc(N(Cc2cccc(SC(F)(F)F)c2)C[C@@H](O)C(F)(F)F)cc(OC)c1OC | 5 µM |
| Cc1cc(C)cc(Oc2cccc(N(Cc3cccc(OC(F)(F)C(F)F)c3)CC(O)C(F)(F)F)c2)c1 (centres undefined) | 0.07 µM |
| O=[N+]([O-])c1c(F)cccc1Oc1cccc(N(Cc2cccc(OC(F)(F)C(F)F)c2)CC(O)C(F)(F)F)c1 (centres undefined) | 0.1 µM |
| OC(CN(Cc1cccc(OC(F)(F)F)c1)c1ccccc1Oc1ccccc1)c1ccc(C(F)(F)F)cc1 (centres undefined) | 18 µM |
| OC(CN(Cc1cccc(OC(F)(F)C(F)F)c1)c1cccc(Oc2cccnc2)c1)C(F)(F)F (centres undefined) | 1.3 µM |
| OC(CN(Cc1cccc(Oc2ccccc2)c1)c1cccc(F)c1)C(F)(F)F (centres undefined) | 15 µM |
| OC(CN(Cc1cccc(C2CCCC2)c1)c1cccc(Oc2ccccc2)c1)C(F)(F)F (centres undefined) | 0.3 µM |
| OC(CN(Cc1ccc(OC(F)(F)F)cc1)c1cccc(F)c1)C(F)(F)F (centres undefined) | 15 µM |
| OC(CN(Cc1cccc(Oc2ccccc2)c1)Cc1cccc(OC(F)(F)F)c1)C(F)(F)F (centres undefined) | 30 µM |
| OC(CN(Cc1cccc(OC(F)(F)C(F)(F)F)c1)c1cccc(Oc2ccc(S)cc2)c1)C(F)(F)F (centres undefined) | > 50 µM |
| OC(CN(Cc1cccc(OC(F)(F)C(F)F)c1)c1cccc(Oc2ccc(Cl)c(Cl)c2)c1)C(F)(F)F (centres undefined) | 0.08 µM |
| OC(CN(Cc1cccc(OC(F)(F)C(F)F)c1)c1cccc(Oc2cccc(F)c2F)c1)C(F)(F)F (centres undefined) | 0.1 µM |
